Results: US20250295629A1, “COMPOSITIONS AND METHODS FOR TREATING CANCERS OF THE CENTRAL NERVOUS SYSTEM (CNS), INCLUDING GLIOBLASTOMA AND CHEMORESISTANT CNS TUMORS, AND RELATED COMPOSITIONS AND METHODS FOR INHIBITING AND ELIMINATING CNS CANCER STEM CELLS” (priority 2022, published 2025)

Columns and labels:
[1] = test system: LC3, P62 and Cathepsin D in GLUC2 and KR158 cells; experiment: Immunocytochemistry of autophagy markers; assay type: cell-based, mouse; details: 48 hours
Method: (§1) For immunocytochemical analysis, GLUC2, KRl 58 and GBM43 cells were plated on glass coverslips overnight. Cells were treated with medium or lucanthone for 48 hours. The medium was aspirated and cells were fixed with 4% PFA for 10 minutes. Plates were then washed 3× with 0.3% TX-100 in PBS and wells were blocked with 3% normal goat serum/0.3% TX-100 in PBS for 1 hour. Cells were stained with primary antibodies overnight (LC3, Ki67, Nestin, Olig2, SOX2, CD133, p62, Cathepsin D, yH2AX). The primary antibody was removed, and cells were again washed 3× with 0.3% TX-100 in PBS after which time cells were incubated with fluorescent secondary antibodies for an hour at room temperature. Cells were then washed 3× with PBS, counterstained with DAPI and imaged under confocal microscopy. GSC were induced to adhere to glass slides by precoating glass slides with Geltrex for an hour.

[2] = test system: Olig2, nestin and SOX2 in GLUC2 spheroids; experiment: Stemness marker staining of spheroids; assay type: cell-based, mouse; details: 10 μM, 48 hours
Method: as §1
To gain mechanistic insight into how lucanthone reduces sternness, KR158 and GLUC2 GSC were cultivated to form spheroids for 10 days, then spheroids were treated with 10 μM lucanthone for 48 hours and assayed for alterations in levels of LC3 and p62. […] In addition to assessing for changes in autophagic flux, we assessed for changes in the levels of sternness markers after treatment. […] Using RT-qPCR lucanthone reduced Olig2 mRNA expression in GLUC2 spheroids by >60% (FIG. 51), with some detectable change also observed in Ki67 in these cultures.

[3] = test system: KR158 cells; experiment: Crystal violet, dual treatment (lucanthone and TMZ); assay type: cell-based, mouse
Method: (§2) For dual treatment studies (lucanthone and TMZ), GLUC2 and KR158 cells were plated at a density of 2,500 and 1,000 cells per well in a 12-well plate and allowed to adhere overnight. Cells were then treated with medium, TMZ, lucanthone, or a combination for 4 days. The media were aspirated, and the cells were washed with PBS once and incubated with standard medium for 3 days. The cells were fixed with PFA and treated with 0.5% crystal violet solution as above and photographed. Then lysis solution of 10% SDS in dH2O was added to the plates overnight. To quantify relative crystal violet intensity, the absorbance of the crystal violet-containing supernatant was read under a spectrophotometer at 590 nm with a reference wavelength of 670 nm. Data are graphed as percent of control (medium only-treated cells).,

[4] = test system: GLUC2 (GL261) cells; experiment: as above; assay type: cell-based, mouse
Method: as §2

[5] = test system: GLUC2 GSC intracranial gliomas; experiment: Murine glioma model, luciferase imaging and tumor volume; assay type: in vivo, mouse
Method: (§3) Gliomas were established in 3-4 month old male and female mice as described previously (3, 4, 33). GLUC2 GSC were dissociated with accutase and counted. Mice were anesthetized with 20 mg/kg avertin, a midline incision was made in the scalp, the skin retracted and a small burr hole was drilled in the skull at the following stereotactic coordinates from bregma: −lmm anteroposterior and +2 mediolateral. l×10^5 GLUC2 GSC resuspended in PBS were injected over a period of 2 minutes at a depth of 3 mm. At the end of the injection, the needle was kept in the injection site for a further 3 minutes. After needle removal, the incision was sutured and mice were placed on a heating pad until they fully recovered from anesthesia. […] All animal procedures were approved by the Stony Brook University Institutional Animal Care and Use Committee.
GSC engraftment was visualized using the IVIS spectrum in vivo imaging system 7 days after inoculation and again on days 14 and 21. Briefly, mice were anesthetized using continuous isofluorane exposure. Their scalps were shaved. Mice were injected i.p. with 150 mg/kg D-Luciferin, carefully placed in the IVIS spectrum machine and imaged every 3-4 minutes for 40 minutes. Relative signal was quantified by technician blinded to experiment, and luminescence ratios of day 21 to day 7 were calculated to approximate disease progression throughout the course of treatment.
(§4) Lucanthone was solubilized in 10% DMSO, 40% HPCD in PBS. After confirming the presence of gliomas on day 7, mice were randomly divided to control and treatment groups, and treated with either saline or 50 mg/kg lucanthone i.p. every day from day 7 to day 20. On day 21, tumors were visualized by bioluminescent imaging, as above.
(§5) Mice were anesthetized with 20 mg/kg avertin and transcardially perfused with 30 ml PBS followed by 30 ml 4% PFA in PBS. Brains were removed and post-fixed in 4% PFA in PBS overnight. They were dehydrated for 48 hours in 30% w/v sucrose in PBS. Brains were then embedded in optimal cutting temperature compound (OCT, Tissue-Tek) and 20 μm coronal sections throughout the entire tumor were taken on a Leica cryostat (Nusslock, Germany) and collected on Superfrost plus microscope slides. To determine tumor volume, serial sections were taken from each animal and subjected to hematoxylin and eosin stain. Tumor volume was calculated as tumor area×20 μm thickness, x number of slides (34).

[6] = test system: GLUC2 GSC intracranial gliomas (tumor microenvironment); experiment: Immunohistochemistry of tumors from the murine glioma model; assay type: in vivo, mouse
Method: as §3, §4, §5
For immunohistochemical analysis, slides were brought to room temperature, washed 3× with 0.3% TX-100 in PBS and then blocked with 1% BSA/0.3% TX-100 in PBS for 1 hour. Slides were incubated overnight with appropriate primary antibodies (Table 1). The primary antibody was removed and slides were washed 3× 0.3% TX-100 in PBS and incubated with appropriate secondary antibodies for 1 hour. Slides were washed 3× with PBS, and counterstained with DAPI. Immunoreactivity was visualized by confocal imaging using the Leica SP8-x system, with white light and argon lasers.

[7] = test system: yH2AX in GLUC2 and KR158 cells; experiment: yH2AX staining (DNA damage marker); assay type: cell-based, mouse; details: 48 hours
Method: as §1

[8] = higher relative increase in KR158 cells
[9] = 1 μM lucanthone alone, 4 days then 3 days recovery
[10] = combination of lucanthone and TMZ, p<0.05, King's synergy test

**Q.** How did the LC3 punctae [1] turn out when `CCN(CC)CCNc1ccc(C)c2sc3ccccc3c(=O)c12` [lucanthone] was run?
**A.** increase

**Q.** What about the “Cathepsin D level” value [1, 8] of the same compound?
**A.** increase

**Q.** And the P62 level [1, 8]?
**A.** increase

**Q.** What about the Olig2 intensity [2] of the same compound?
**A.** strong reduction

**Q.** And the SOX2 expression [2]?
**A.** did not change

**Q.** And the nestin expression [2]?
**A.** did not change

**Q.** What about the “effect on cells (crystal violet)” value [3, 9] of the same compound?
**A.** modest effect

**Q.** And the crystal violet intensity [3, 10]?
**A.** markedly decreased

**Q.** What about the “effect on cells (crystal violet)” value [4, 9] of the same compound?
**A.** modest effect

**Q.** And the crystal violet intensity [4, 10]?
**A.** markedly decreased

**Q.** What about the systemic toxicity ([5]; 50 mg/kg) of the same compound?
**A.** lack of apparent systemic toxicity

**Q.** What about the “weight loss throughout the course of treatment” value ([5]; 50 mg/kg i.p. every day) of the same compound?
**A.** did not experience significant weight loss

**Q.** What about the “mice with a two-fold increase in luminescence” value ([5]; day 14, 50 mg/kg i.p. every day from day 7) of the same compound?
**A.** 1 of 8

**Q.** And the “increase in tumor luminescence compared to day 7” value ([5]; day 21, 50 mg/kg i.p. every day)?
**A.** 10 fold

**Q.** What about the “tumors smaller than those of saline-treated animals” value ([5]; histological analysis, 50 mg/kg i.p. every day) of the same compound?
**A.** approximately 60%

**Q.** And the CD31 intensity ([6]; 50 mg/kg vs control)?
**A.** diminished

**Q.** What about the “Glut1 positivity (tumor hypoxia)” value ([6]; 50 mg/kg vs control) of the same compound?
**A.** minimal

**Q.** And the “blood vessel luminal areas” value ([6]; 50 mg/kg vs control)?
**A.** substantially increased

**Q.** What about the “blood vessel size (CD31)” value ([6]; 50 mg/kg vs control) of the same compound?
**A.** smaller

**Q.** And the “blood vessel tortuosity and circularity” value ([6]; 50 mg/kg vs control)?
**A.** less tortuous and more circular

**Q.** What about the “levels of Glut4” value ([6]; 50 mg/kg vs control) of the same compound?
**A.** not affected

**Q.** What about the HSP60 levels ([6]; 50 mg/kg vs saline) of the same compound?
**A.** Increased levels

**Q.** What about the Ki67 positivity ([6]; 50 mg/kg vs saline) of the same compound?
**A.** similar

**Q.** What about the “Olig2 positivity at tumor periphery and core” value ([6]; 50 mg/kg vs saline) of the same compound?
**A.** striking reduction

**Q.** And the SOX2 expression ([6]; 50 mg/kg vs saline)?
**A.** not significantly different

**Q.** What about the yH2AX positivity ([6]; 50 mg/kg vs saline) of the same compound?
**A.** increased

**Q.** What about the P2RY12 levels ([6]; among treatment groups) of the same compound?
**A.** similar

**Q.** And the “numbers of cytotoxic T cells (CD8a+) in the center of tumors” value ([6]; treated versus control mice)?
**A.** substantial increase

**Q.** What about the yH2AX levels ([7]; lucanthone plus TMZ compared to TMZ alone, not statistically significant) of the same compound?
**A.** slightly increased

**Q.** And the yH2AX intensity ([7]; single agent)?
**A.** minimal effect and not
